Data from patent publication US9925134B2, “Use of substances to protect FGF-2 or FGF-beta growth factor” (BASF Beauty Care Solutions France SAS, priority 2007, dated 2018).

Legend:
normal human fibroblasts [1] = test: Stimulation of collagen synthesis, 3H-proline incorporation; format: cell-based; details: Vitamin C 20 μg/ml; 48 hrs
Experimental: A control was made in parallel with medium only. After 24 hrs of contact, radioactive […]-proline) is added to the medium. At the end of the experiment, the supernatants are collected for dosing the incorporation of radioactive […] into the intracellular proteins.

[2] = system: normal human dermal fibroblasts; test: Fibroblast proliferation by FGF-2 protected by heparin or extract 5c (PNPP); format: cell-based; details: for Proliferation (expressed as percent relative to the non-treated well): 48 hrs, heparin 0.01% during 24 hrs at 37° C.
Experimental: A solution of FGF-2 is prepared extemporaneously (=non-degraded FGF-2); a solution of FGF-2 is placed for 24 hrse at 37° C. in the absence (=degraded FGF-2) and in the presence of heparin (=FGF-2+heparin at 37° C.) at 0.01%.
Each FGF-2 solution is diluted so as to be applied on the cells, the final FGF-2 concentrations being the following: 0.1, 0.25, 0.5, 0.75 and 1 ng/ml.
Normal human dermal fibroblasts were sown at low density in 6-well plates. They were then grown in a medium in the absence (control) or in the presence of FGF-2 at various concentrations.
After 48 hrs, the activity of intracellular acid phosphatases (PNPP) is dosed, so as to be able to evaluate the effect of FGF-2 solutions, either treated or not, on cell proliferation.
The results are expressed as a proliferation percentage relative to the control well i.e. to the non-treated well.
The same experiment was conducted by replacing heparin with extract 5c. The FGF-2 solution put into the presence of 0.5% of extract 5c is placed for 24 hrs at 37° C. The solution is then diluted so as to apply 0.5 ng/ml of FGF-2 in the wells containing the fibroblasts.
The 5c extract concentration finally applied on the cells is 0.0025%. It was checked beforehand that this 5c extract concentration was not capable of inducing stimulation of the proliferation of fibroblasts. This means that the observed stimulation of proliferation is actually due to the protection of FGF-2 by extract 5c (see Table 8).

normal human fibroblasts [3] = test: Stimulation of synthesis of total GAGs, radioactive glucosamine incorporation; format: cell-based; details: TGF-β 10 ng/ml; 72 hrs
Experimental: (§1) Normal human fibroblasts stemming from a donor, were grown in 96-well plates with medium (consisting of DMEM, glutamine 2 mM, penicillin 50 IU/ml-streptomycin 50 μg/ml, 10% fetal calf serum) for 24 hrs. […] A control was made in parallel with the medium only.
After 48 hrs of contact, radioactive glucosamine (D-(6-^3H)-glucosamine) is added to the medium.
(§2) At the end of the experiment, the supernatants are collected for dosing the incorporation of radioactive glucosamine into the intracellular proteins. Dosage of the proteins is performed with a commercial kit (BioRad 500-0116).

normal human fibroblasts [4] = test: Stimulation of synthesis of sulfated GAGs, 35S-sulfate incorporation; format: cell-based; details: TGF-β 10 ng/ml
Experimental: as §1, §2
In the same way, a study of the incorporation of ^35S-sulfate is conducted for quantifying the sulfated GAGs. The applied procedure is the same as that for the total GAGs, except for the nature of the radioactive precursor.

FGF-2 [5] = molecular target: T1, FGF-2 (Homo sapiens, UniProt P09038); test: Protection of FGF-2 against thermal degradation, stress of 2.15 hrs at 45° C., FGF-2 dosed by ELISA kit; format: biochemical; details: for FGF-2 protection by GAGs and proteoglycans of the skin (in words): solutions at 0.1%
Experimental: Degradation of FGF-2 observed at about 50° C. is particularly interesting, because a short period of time allows degradation of FGF-2 of about 80%, thereby allowing a large number of tests to be conducted. For this reason, it was decided to achieve screening with a stress of 2.15 hrs at 45° C. and to study the capacity of a large number of actives for protecting FGF-2 against this thermal degradation.
The applied screening model is the following: • 180 μl of a 4.5 ng/ml FGF-2 solution prepared in 0.1% BSA/PBS buffer are distributed in a 96-well microplate. 20 μl of distilled water or 0.05% heparin or a solution containing various active ingredients extracted from different plants to be tested are added. The plate is stirred by means of a plate stirrer and then covered with adhesive tape and placed in an oven at 45° C. for 2.15 hrs. At the end of the incubation period, the plate is taken out and dosage of FGF-2 is then carried out by means of the ELISA kit.
A control plate only containing FGF-2 and distilled water, treated under the same conditions, is left at room temperature.
The results are expressed as a FGF-2 protection percentage relatively to the non-stressed or non-degraded FGF-2 control.
The stress protocol described in Example 2 was applied, 20 μl of water being substituted with 20 μl of corresponding GAG or PG solution. The tested GAGs and PGs thereby undergo additional dilution to 1/10. […]
Target sequence in this assay (P09038 143-288): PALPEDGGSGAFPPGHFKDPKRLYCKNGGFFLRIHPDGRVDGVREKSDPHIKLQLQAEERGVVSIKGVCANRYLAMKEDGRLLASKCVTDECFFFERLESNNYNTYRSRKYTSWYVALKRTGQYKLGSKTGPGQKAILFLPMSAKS

FGF-2 [6] = molecular target: T1, FGF-2; test: Protection of FGF-2 at physiological temperature, FGF-2 dosed after 24 hrs at 37° C.; format: biochemical; details: 0.01% heparin
Experimental: It was absolutely necessary to check whether the extract 5c was able to protect FGF-2 at a physiological temperature, i.e., 37° C. This is why an investigation consisted of dosing FGF-2 after 24 hrs at 37° C. in the absence or in the presence of increasing concentrations of extract 5c.
Target sequence in this assay (P09038 143-288): as above

FGF-2 [7] = molecular target: T1, FGF-2; test: Study of thermal degradation (stability) of FGF-2 at various temperatures with or without heparin, ELISA; format: physicochemical; details: 0.05% heparin
Experimental: A 5 ng/ml solution of FGF-2 in a 10 mM PBS buffer with 0.1% BSA and 0.1% of methylparaben is prepared.
This solution is placed at various temperatures: 4° C., 20° C., 37° C., 50° C., and 80° C. either in the presence of heparin or not at 500 μg/ml.
Dosages of FGF-2 with a commercial ELISA kit (R&D system, France) are performed at different times (T=0, 3 hrs, 24 hrs and 48 hrs) so as to establish degradation kinetics for each temperature of investigation.
The results are expressed as a percentage of FGF-2 relative to time T=0. The experiments are conducted in triplicates (n=3). The obtained results are illustrated in FIGS. 1 and 2.
Target sequence in this assay (P09038 143-288): as above

FGF-2 [8] = molecular target: T1, FGF-2; details: pH 2 and pH 9 versus neutral pH; cited from earlier work
Target sequence in this assay (P09038 134-288 limits assumed): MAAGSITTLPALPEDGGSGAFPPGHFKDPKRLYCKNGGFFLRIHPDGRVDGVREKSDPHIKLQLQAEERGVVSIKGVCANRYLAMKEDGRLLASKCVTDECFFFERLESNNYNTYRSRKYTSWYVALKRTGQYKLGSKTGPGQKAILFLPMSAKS

FGF-2 [9] = molecular target: T1, FGF-2; details: cited from earlier work
Target sequence in this assay (P09038 134-288 limits assumed): as above

FGF-2 [10] = molecular target: T1, FGF-2; details: 3 hours of incubation at 37° C.; cited from earlier work
Target sequence in this assay (P09038 134-288 limits assumed): as above

[11] = 0.01%, 0.001%, further diluted 1/10, 45° C. 2.15 hrs

Molecule: O=C1O[C@H]([C@@H](O)CO)C(O)=C1O [Vitamin C, vitamin C]
- % control (collagen synthesis) (normal human fibroblasts [1]): 170%
- cpm (3H-proline incorporation) (normal human fibroblasts [1]): 10185 cpm

Molecule: Degraded FGF-2: solution of FGF-2 placed for 24 hrs at 37° C. in the absence of heparin
- Proliferation (as a percentage) of fibroblasts relative to the non-treated control ([2]; FGF-2 0.5 ng/ml, 0.5% 5c extract during 24 hrs at 37° C. (0.0025% on the cells)): 123.7% ± 0.005
- Proliferation (expressed as percent relative to the non-treated well) ([2]; FGF-2 concentration 0.1 ng/ml): 96.2 ± 0.014%
- Proliferation (expressed as percent relative to the non-treated well) ([2]; FGF-2 concentration 0.25 ng/ml): 111 ± 0.006%
- Proliferation (expressed as percent relative to the non-treated well) ([2]; FGF-2 concentration 0.5 ng/ml): 123.7 ± 0.005%
- Proliferation (expressed as percent relative to the non-treated well) ([2]; FGF-2 concentration 0.75 ng/ml): 132.5 ± 0.004%
- Proliferation (expressed as percent relative to the non-treated well) ([2]; FGF-2 concentration 1 ng/ml): 146.4 ± 0.01%

Molecule: TGF-β
- % control, total GAGs (normal human fibroblasts [3]): 240%
- Activity (cpm), total GAGs (normal human fibroblasts [3]): 2590 cpm
- Ratio (act./Prot.), total GAGs (normal human fibroblasts [3]): 709
- % control, sulfated GAGs (normal human fibroblasts [4]): 176%
- Activity (cpm), sulfated GAGs (normal human fibroblasts [4]): 5442 cpm
- Ratio (act./Prot.), sulfated GAGs (normal human fibroblasts [4]): 1491

Molecule: chondroitin sulfate
- FGF-2 protection by GAGs of the skin (FGF-2 [5]; chondroitin sulfate solutions at 0.1%, 0.01%, 0.001%, further diluted 1/10, 45° C. 2.15 hrs): < 100%
- FGF-2 protection by GAGs and proteoglycans of the skin (in words) (FGF-2 [5]; [11]): depends on its dose

Molecule: dermatan sulfate
- FGF-2 protection by GAGs and proteoglycans of the skin (in words) (FGF-2 [5]; [11]): protects FGF-2

Molecule: heparan sulfate [Heparin sulfate]
- FGF-2 protection by GAGs and proteoglycans of the skin (in words) (FGF-2 [5]; [11]): protects FGF-2

Molecule: heparin
- Protection of FGF-2, positive control (FGF-2 [5]; 0.01% heparin in the final reaction medium, 45° C. stress of Example 2): 105.52%±3.04
- Protection of FGF-2, positive control (FGF-2 [6]): 110.53%±3.20
- Protection of FGF-2 by heparin (in words) (FGF-2 [7]; 80° C.): not effective
- Stability of FGF-2 in the presence of heparin (in words) (FGF-2 [7]; various temperatures): degradation is stopped
- Proliferation with FGF-2 protected by heparin (in words) ([2]; heparin 0.01%, up to 0.5 ng/ml FGF-2): proliferation is maintained
- Activity of FGF-2 at acid and basic pH in the presence of heparin (in words) (FGF-2 [8]): retain a similar (or even slightly weaker) activity of FGF-2
- Protection of the activity of FGF-2 by heparin (in words) (FGF-2 [9]; 0° C., 20° C., 37° C., 1 hr to 60 days): provides protection of the activity of FGF-2 over time
- Activity of FGF-2 in the presence of heparin (in words) (FGF-2 [9]; 60° C. and 90° C.): no activity is detected
- Protection of FGF-2 against trypsin and chymotripsin (in words) (FGF-2 [10]): total protection of FGF-2

Molecule: hyaluronic acid [Hyaluronan]
- FGF-2 protection by GAGs and proteoglycans of the skin (in words) (FGF-2 [5]; [11]): by no means allows FGF-2 to be protected

B1: decorin: proteoglycan consisting of chondroitin sulfate and dermatan sulfate chains (protein, UniProt P07585 31-359, looked up)
Decorin: DEASGIGPEVPDDRDFEPSLGPVCPFRCQCHLRVVQCSDLGLDKVPKDLPPDTTLLDLQNNKITEIKDGDFKNLKNLHALILVNNKISKVSPGAFTPLVKLERLYLSKNQLKELPEKMPKTLQELRAHENEITKVRKVTFNGLNQMIVIELGTNPLKSSGIENGAFQGMKKLSYIRIADTNITSIPQGLPPSLTELHLDGNKISRVDAASLKGLNNLAKLGLSFNSISAVDNGSLANTPHLRELHLDNNKLTRVPGGLAEHKYIQVVYLHNNNISVVGSSDFCPPGHNTKKASYSGVSLFSNPVQYWEIQPSTFRCVYVRSAIQLGNYK
- FGF-2 protection by GAGs and proteoglycans of the skin (in words) (FGF-2 [5]; [11]): inefficient
